Calls of active or inactive are those of the source. The rule behind the calls is not given here.
System: M. tuberculosis H37Rv growth inhibition with meropenem
Experiment: dose response, H37Rv, with and without meropenem (AID 434987);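 note: growth over 7 days at 37 °C before Alamar Blue read on day 9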
[1] = M. tuberculosis H37Rv growth inhibition, measured here: IC50 without meropenem
[2] = M. tuberculosis H37Rv growth inhibition, measured here: IC90 without meropenem
[3] = measured here: IC90 with meropenem

Row | Structure (SMILES) | IC50 | IC50 [1] [µM] | IC90 [2] [µM] | IC90 [3] [µM]
1 | O=C(Nc1ccc(Cl)cc1)C1CC2CCCC(C1)C2=O (configuration not stated) | > 100 µM (inactive) | > 100 | > 100 | > 100
2 | O=C(N[C@@H](Cc1ccccc1)C(=O)CCl)OCc1ccccc1 | 8.88 µM (inactive) | 17.3 | 41.9 | 46.9
3 | Cc1nnc(SCC2=C(C(=O)O)N3C(=O)C(NC(=O)COc4ccc(F)cc4)C3SC2)s1 (configuration not stated) | 1.74 µM | 99 | > 100 | 9.33
4 | CCCOc1ccc(C(=O)N/N=C/c2ccc(-c3ccc(S(=O)(=O)Nc4ncccn4)cc3)o2)cc1 | 22.4 µM (inactive) | 39.8 | > 100 | 26.1
5 | Cc1cc(NC(=O)c2ccc3c(c2)OCCO3)ccc1NC(=O)c1cc2ccccc2o1 | 76.3 µM (inactive) | > 100 | > 100 | > 100
6 | Cc1cc(C)n(-c2nc(-c3ccc(Cl)c(Cl)c3)cs2)n1 | 14.5 µM | > 100 | > 100 | > 100
7 | Cc1cccnc1NC(=S)NC(=O)c1cncc(Br)c1 | 4.68 µM | 40.3 | > 100 | > 100
8 | COc1cc(NC(=O)c2ccc(Cl)cc2)c(OC)cc1NC(=O)CN1CCOCC1 | > 100 µM (inactive) | > 100 | > 100 | > 100
9 | Cc1ccsc1/C=N/Nc1ncc(Cl)cc1Cl | 8.81 µM | 50.9 | > 100 | > 100
10 | CCCn1nnnc1NC(=O)COc1ccc(Cl)cc1C | 12.4 µM (inactive) | 24.3 | 28.6 | 42.9
11 | S=C(Nc1ccc(Cl)cc1)c1nc2ccccc2s1 | 43.2 µM (inactive) | > 100 | > 100 | > 100
12 | O=C(NCc1ccc2c(c1)OCO2)Nc1ccc2ccccc2c1 | 78.3 µM (inactive) | > 100 | > 100 | > 100
13 | Cc1ccc(-n2c(SCC(=O)NCc3ccco3)nc3sc4c(c3c2=O)CC(C)(C)SC4)cc1 | > 100 µM (inactive) | > 100 | > 100 | > 100
14 | O=c1c2ccccc2c(-c2ccccc2)nn1-c1ccccc1 | 19.7 µM | > 100 | > 100 | > 100
15 | CCOc1ccc2nc(SC3CC(=O)N(c4ccc(OC)cc4)C3=O)sc2c1 (configuration not stated) | > 100 µM (inactive) | > 100 | > 100 | > 100
16 | CCOC(=O)NC1c2ccccc2Oc2ccccc21 | 37.6 µM | > 100 | > 100 | > 50
17 | CCCC(=O)Nc1nc(-c2ccccc2)ns1 | > 100 µM (inactive) | > 100 | > 100 | > 100
18 | CCc1cc(C(N)=S)ccn1 | 8.46 µM | 59.3 | > 100 | 12.8
19 | O=S(=O)(Nc1ccccc1)c1ccc2c(c1)CCO2 | > 100 µM (inactive) | > 100 | > 100 | > 100
20 | CCOC(=O)/C=c1\s/c(=C\c2c(OC)ccc3ccccc23)c(=O)n1CC(=O)NCC1CCCO1 (configuration not stated) | > 100 µM (inactive) | > 100 | > 100 | > 100

Row | Structure (SMILES) | IC50 | IC50 [1] [µM] | IC90 [2] [µM] | IC90 [3] [µM]
21 | Cc1cc(C)c(OCC(=O)Nc2nc3ccccc3[nH]2)c(C)c1 | 1.22 µM | 22.1 | > 100 | 65.2
22 | O=C(Cn1ncc2c3ccccc3n(Cc3ccccc3F)c2c1=O)NCCCN1CCCC1=O | > 100 µM (inactive) | > 100 | > 100 | > 100
23 | O=C(O)CCC/C=C\C[C@@H]1[C@@H](/C=C/[C@@H](O)COc2cccc(Cl)c2)[C@H](O)C[C@@H]1O | > 100 µM (inactive) | > 100 | > 100 | > 100
24 | O=C(CCNc1ccccc1)c1cccc([N+](=O)[O-])c1 | 11.7 µM | > 100 | > 100 | 45.8
25 | Cc1c(-c2ccccc2)cnc2c(C)cccc12 | 59.9 µM (inactive) | 95.6 | > 100 | > 100
26 | O=C(Cn1c(=O)n(CCCC(=O)NC2CCCC2)c(=O)c2ccccc21)NCCC1=CCCCC1 | > 100 µM (inactive) | > 100 | > 100 | > 100
27 | COc1ccc(CC2=C(O)c3ccccc3C(=O)C2=O)cc1 | 47.2 µM (inactive) | > 100 | > 100 | > 100
28 | CCc1ccc2c(c1)C(c1ccc([N+](=O)[O-])cc1)=NNC(c1ccc(C)cc1)=N2 | > 100 µM (inactive) | > 100 | > 100 | > 100
29 | CS(=O)(=O)N(Cc1ccc(Cl)cc1)c1ccc(C(=O)NCCC2=CCCCC2)cc1 | > 100 µM (inactive) | > 100 | > 100 | > 100
30 | Cc1ccc(C)c(NC(=O)c2cc(-c3cccnc3)nc3ccccc23)c1 | > 100 µM (inactive) | > 100 | > 100 | > 100
31 | CN(Cc1ccccc1)C(=S)NC(=O)c1ccc(-c2ccccc2)cc1 | 7.23 µM | 24.2 | > 100 | > 100
32 | CN(NC(=O)c1c(Cl)cccc1Cl)c1cccc(Cl)n1 | 7.34 µM | 62.3 | > 100 | > 100
33 | O=C(NCc1ccc2c(c1)OCO2)C(=O)NC1CCCCC1 | > 100 µM (inactive) | > 100 | > 100 | > 100
34 | COc1ccc(NC(=O)CCC2CCCC2)cc1OC | > 100 µM (inactive) | > 100 | > 100 | > 100
35 | COc1ccccc1NC(=O)COc1ccc(CO)cc1Cl | > 100 µM (inactive) | > 100 | > 100 | > 100
36 | OCCOCCn1c(C2CCCN2c2nc(-c3ccc(F)cc3)cs2)nc2cc(Cl)c(Cl)cc21 (configuration not stated) | > 100 µM (inactive) | > 100 | > 100 | > 100
37 | O=S1(=O)CCO[C@H]2Cc3ccccc3[C@H]2N1Cc1ccc(Cl)cc1 | > 100 µM (inactive) | > 100 | > 100 | > 100
38 | CCc1ccc(N2C(=O)c3sc4nnc(-c5ccccc5)c(=O)n4c3C2=O)cc1 | > 100 µM (inactive) | > 100 | > 100 | > 100
39 | CCOc1ccc(-c2nnc(SCC(=O)N3CCOCC3)o2)cc1 | > 100 µM (inactive) | > 100 | > 100 | > 100
40 | O=C(CCSc1ccc(Cl)c(Cl)c1)NC12CC3CC(CC(C3)C1)C2 | 11.6 µM | 66.3 | > 100 | 12.3

Row | Structure (SMILES) | IC50 | IC50 [1] [µM] | IC90 [2] [µM] | IC90 [3] [µM]
41 | CCOC(=O)/C=C/c1ccc2c(c1)S(=O)(=O)N(Cc1ccc(OC)cc1)[C@H]2CC(=O)OCC | > 100 µM (inactive) | > 100 | > 100 | > 100
42 | CCc1ccc2oc(-c3cc(N)cc(C)c3O)nc2c1 | 76.1 µM (inactive) | 93.2 | > 100 | > 100
43 | O=C1N/C(=C\c2ccc(O)cc2)C(=O)c2ccccc21 | 21.9 µM | 59.6 | > 100 | > 100
44 | C#C[C@]1(O)CC[C@H]2[C@@H]3CCC4=C(CCC(=O)C4)[C@H]3CC[C@@]21C | > 100 µM (inactive) | > 100 | > 100 | > 100
45 | O=C(N/N=C/c1ccc2c(c1)OCO2)c1sc2cc(Cl)ccc2c1Cl | > 100 µM (inactive) | > 100 | > 100 | > 100
46 | CN(C)S(=O)(=O)c1ccc(C(=O)OCC2CC2(Cl)Cl)cc1 (configuration not stated) | > 100 µM (inactive) | > 100 | > 100 | > 100
47 | CCCOc1ccc(C2Nc3cccc4cccc(c34)N2)cc1 | > 100 µM (inactive) | > 100 | > 100 | > 100
48 | O=c1[nH]c(/C=C/c2cccc(Br)c2)nc2ccccc12 | > 100 µM (inactive) | > 100 | > 100 | > 100
49 | COc1ccc(NC(=O)CCc2ccccc2)cc1NC(=O)c1ccco1 | > 100 µM (inactive) | > 100 | > 100 | > 100
50 | CCOC(=O)Cn1nc(-c2ccc(C)cc2)c2ccccc2c1=O | 17.5 µM | > 100 | > 100 | > 50
51 | COc1ccc(OC)c(Nc2nc(-c3cccs3)cs2)c1 | 42.8 µM (inactive) | 49 | > 100 | > 100
52 | Cc1onc(-c2ccccc2Cl)c1C(=O)NCc1ccc2c(c1)cc(C)n2C | 16.6 µM (inactive) | 39 | 58.5 | 29.4
53 | COc1ccc(-c2cc(-c3ccc(OC)cc3)nc(-c3ccc4c(c3)NC(=O)CO4)c2)cc1 | > 100 µM (inactive) | > 100 | > 100 | > 100
54 | Cc1ccc(OCC(=O)Nc2ccc(-c3nc4ncccc4o3)cc2)c(C)c1 | > 100 µM (inactive) | > 100 | > 100 | > 100
55 | O=C(Nc1ccccc1Cl)c1csc(-c2cccnc2)n1 | 23.9 µM | 82.3 | > 100 | > 100
56 | C=CCNC1=C(Cl)C(=O)N(c2cccc(Cl)c2Cl)C1=O | 13.9 µM | 46.5 | > 100 | 30.2
57 | O=C(CSc1nnc(SCc2ccccc2)s1)N/N=C/c1ccc(Cl)cc1Cl | 72.2 µM (inactive) | > 100 | > 100 | > 100
58 | O=c1oc(-c2cccs2)nc2sc3c(c12)CCC3 | 93 µM (inactive) | > 100 | > 100 | > 100
